Patent publication US11739098B2 (BRISTOL-MYERS SQUIBB COMPANY, priority 2017, dated 2023)

Experiments:
Type in all cases: cell-based
human TLR8 = biological target: T1, human TLR8 (Homo sapiens, UniProt Q9NR97); assay: TLR8 inhibition reporter assay (HEK-Blue cells, SEAP reporter, R848 stimulation); settings: HEK-Blue cells overexpressing human TLR8, SEAP reporter, R848 15.9 μM
T1 construct: host or cells: HEK-Blue cells (HEK293-derived reporter line)
T1 sequence (Q9NR97 27-1041): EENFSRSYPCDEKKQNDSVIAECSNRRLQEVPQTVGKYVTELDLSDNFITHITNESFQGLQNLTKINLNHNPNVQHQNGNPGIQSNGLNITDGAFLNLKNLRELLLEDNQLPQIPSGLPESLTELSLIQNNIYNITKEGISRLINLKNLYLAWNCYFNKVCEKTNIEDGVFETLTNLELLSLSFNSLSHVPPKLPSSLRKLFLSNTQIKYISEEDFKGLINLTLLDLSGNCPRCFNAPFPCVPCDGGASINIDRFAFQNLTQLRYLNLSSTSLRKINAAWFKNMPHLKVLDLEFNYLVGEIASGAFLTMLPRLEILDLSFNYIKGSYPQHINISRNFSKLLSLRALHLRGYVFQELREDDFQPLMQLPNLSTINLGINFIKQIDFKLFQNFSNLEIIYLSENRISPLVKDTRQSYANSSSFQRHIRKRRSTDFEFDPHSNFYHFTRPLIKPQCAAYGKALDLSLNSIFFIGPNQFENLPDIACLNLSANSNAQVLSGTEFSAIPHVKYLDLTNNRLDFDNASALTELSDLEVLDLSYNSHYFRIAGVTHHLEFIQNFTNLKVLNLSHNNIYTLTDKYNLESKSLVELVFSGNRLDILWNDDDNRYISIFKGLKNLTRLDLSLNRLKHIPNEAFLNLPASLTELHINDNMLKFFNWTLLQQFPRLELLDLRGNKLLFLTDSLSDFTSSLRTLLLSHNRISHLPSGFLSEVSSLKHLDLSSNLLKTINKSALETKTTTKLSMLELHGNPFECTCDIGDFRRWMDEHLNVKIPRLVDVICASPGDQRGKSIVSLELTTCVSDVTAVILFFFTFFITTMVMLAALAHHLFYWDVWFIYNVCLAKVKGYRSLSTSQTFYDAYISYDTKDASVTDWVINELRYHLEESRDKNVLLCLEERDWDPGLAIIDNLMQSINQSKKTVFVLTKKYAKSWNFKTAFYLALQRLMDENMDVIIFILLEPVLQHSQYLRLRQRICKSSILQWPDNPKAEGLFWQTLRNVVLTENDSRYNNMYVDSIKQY
Summary of the method: (§1)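 Agonists (final): TLR7 gardiquimod 7.5 μM; TLR8 R848 15.9 μM; TLR9 ODN2006 5 nM. HEK-Blue reporter cells, 30 min RT compound pre-incubation, 0.05 nM–50 μM dose range, 22 h at 37 °C, colorimetric SEAP detection medium. % inhibition relative to agonist+DMSO and known-inhibitor wells.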

human TLR9 = biological target: T2, human TLR9 (Homo sapiens, UniProt Q9NR96); assay: TLR9 inhibition reporter assay (HEK-Blue cells, SEAP reporter, ODN2006 stimulation); settings: HEK-Blue cells overexpressing human TLR9, SEAP reporter, ODN2006 5 nM
T2 construct: host or cells: HEK-Blue cells (HEK293-derived reporter line)
T2 sequence (Q9NR96 26-1032): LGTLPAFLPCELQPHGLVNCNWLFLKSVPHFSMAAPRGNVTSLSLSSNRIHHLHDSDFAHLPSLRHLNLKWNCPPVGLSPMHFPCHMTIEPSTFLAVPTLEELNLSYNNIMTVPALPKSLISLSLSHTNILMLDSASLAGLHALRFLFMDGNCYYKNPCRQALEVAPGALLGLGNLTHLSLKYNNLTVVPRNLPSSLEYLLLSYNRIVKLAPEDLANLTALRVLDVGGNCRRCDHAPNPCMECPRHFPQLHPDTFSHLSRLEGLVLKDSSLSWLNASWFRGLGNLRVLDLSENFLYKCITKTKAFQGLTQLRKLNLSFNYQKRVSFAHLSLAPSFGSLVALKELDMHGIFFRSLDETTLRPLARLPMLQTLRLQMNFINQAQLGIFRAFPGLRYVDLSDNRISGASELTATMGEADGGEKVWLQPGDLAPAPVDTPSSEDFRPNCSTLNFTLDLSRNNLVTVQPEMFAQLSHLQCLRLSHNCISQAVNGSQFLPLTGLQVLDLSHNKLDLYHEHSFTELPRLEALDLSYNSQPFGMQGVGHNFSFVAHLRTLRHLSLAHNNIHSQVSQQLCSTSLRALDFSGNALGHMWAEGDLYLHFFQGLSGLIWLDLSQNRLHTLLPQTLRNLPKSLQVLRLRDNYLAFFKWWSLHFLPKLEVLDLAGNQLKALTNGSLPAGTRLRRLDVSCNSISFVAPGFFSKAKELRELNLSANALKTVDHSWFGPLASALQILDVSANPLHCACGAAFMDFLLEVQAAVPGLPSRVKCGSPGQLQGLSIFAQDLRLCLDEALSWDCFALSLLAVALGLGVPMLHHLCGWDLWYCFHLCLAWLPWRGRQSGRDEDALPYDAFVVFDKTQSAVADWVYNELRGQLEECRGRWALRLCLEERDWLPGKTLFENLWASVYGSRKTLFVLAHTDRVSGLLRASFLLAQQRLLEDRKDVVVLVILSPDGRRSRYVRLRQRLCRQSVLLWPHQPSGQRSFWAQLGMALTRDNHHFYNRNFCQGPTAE
Summary of the method: as §1

human TLR7 = biological target: T3, human TLR7 (Homo sapiens, UniProt Q9NYK1); assay: TLR7 inhibition reporter assay (HEK-Blue cells, SEAP reporter, gardiquimod stimulation); settings: HEK-Blue cells overexpressing human TLR7, SEAP reporter, gardiquimod 7.5 μM
T3 construct: host or cells: HEK-Blue cells (HEK293-derived reporter line)
T3 sequence (Q9NYK1 27-1049): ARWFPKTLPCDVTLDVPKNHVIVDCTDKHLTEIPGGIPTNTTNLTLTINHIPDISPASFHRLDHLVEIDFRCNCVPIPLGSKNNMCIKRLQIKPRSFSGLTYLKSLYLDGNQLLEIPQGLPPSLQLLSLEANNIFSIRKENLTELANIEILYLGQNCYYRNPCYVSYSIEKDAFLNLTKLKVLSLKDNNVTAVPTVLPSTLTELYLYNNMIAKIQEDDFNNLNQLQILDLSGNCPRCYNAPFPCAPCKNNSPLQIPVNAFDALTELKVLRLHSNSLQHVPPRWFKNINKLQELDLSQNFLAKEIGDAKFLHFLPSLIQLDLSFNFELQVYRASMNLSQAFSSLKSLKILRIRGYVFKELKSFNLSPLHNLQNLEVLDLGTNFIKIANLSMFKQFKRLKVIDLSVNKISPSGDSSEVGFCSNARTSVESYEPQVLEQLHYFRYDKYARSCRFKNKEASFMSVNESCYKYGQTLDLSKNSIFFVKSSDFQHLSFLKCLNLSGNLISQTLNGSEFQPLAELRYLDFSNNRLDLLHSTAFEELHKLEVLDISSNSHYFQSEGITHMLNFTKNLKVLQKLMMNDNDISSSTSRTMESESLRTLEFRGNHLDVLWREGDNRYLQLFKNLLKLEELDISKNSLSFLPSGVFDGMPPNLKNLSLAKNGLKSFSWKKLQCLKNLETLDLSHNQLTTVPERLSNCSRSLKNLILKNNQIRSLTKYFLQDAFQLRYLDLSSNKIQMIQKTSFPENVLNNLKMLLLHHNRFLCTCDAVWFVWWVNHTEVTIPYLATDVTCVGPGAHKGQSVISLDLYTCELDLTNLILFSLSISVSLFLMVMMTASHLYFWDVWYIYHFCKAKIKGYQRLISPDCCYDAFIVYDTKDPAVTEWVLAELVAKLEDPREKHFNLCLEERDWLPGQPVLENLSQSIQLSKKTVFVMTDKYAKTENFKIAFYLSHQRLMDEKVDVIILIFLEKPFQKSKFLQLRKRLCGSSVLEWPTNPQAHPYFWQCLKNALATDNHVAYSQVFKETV
Summary of the method: as §1

SMILES	IC50 (human TLR8)	IC50 (human TLR9)	IC50 (human TLR7)
Cc1cn2cc(-c3[nH]c4ccc(C5CCN(C(=O)CC(C)(C)O)CC5)cc4c3C(C)C)c(C)cc2n1 [Example 597, 1-(4-(2-(2,7-dimethylimidazo[1,2-a]pyridin-6-yl)-3-isopropyl-1H-indol-5-yl)piperidin-1-yl)-3-hydroxy-3-methylbutan-1-one]	> 3130 nM	1000 to 50000 nM	100 to 1000 nM
CNC(=O)CN1CCC(c2ccc3[nH]c(-c4cc(C)n5ccnc5c4)c(C(C)C)c3c2)CC1 [Example 355, 2-(4-(3-isopropyl-2-(5-methylimidazo[1,2-a]pyridin-7-yl)-1H-indol-5-yl)piperidin-1-yl)-N-methylacetamide]	100 to 1000 nM	100 to 1000 nM	100 to 1000 nM
CC(C)c1c(-c2ccn3nccc3n2)[nH]c2ccc(C3CCN(CC(=O)N(C)C)CC3)cc12 [Example 425, 2-(4-(3-isopropyl-2-(pyrazolo[1,5-a]pyrimidin-5-yl)-1H-indol-5-yl)piperidin-1-yl)-N,N-dimethylacetamide]	100 to 1000 nM	1000 to 50000 nM	100 to 1000 nM
CC(C)c1c(-c2ccn3cnnc3c2)[nH]c2ccc(C3CCN(C4CCOCC4)CC3)cc12 [Example 697, 7-(3-isopropyl-5-(1-(tetrahydro-2H-pyran-4-yl)piperidin-4-yl)-1H-indol-2-yl)-[1,2,4]triazolo[4,3-a]pyridine]	100 to 1000 nM	100 to 1000 nM	100 to 1000 nM
FC(F)Cc1c(-c2ccn3ccnc3c2)[nH]c2ccc(C3CCNCC3)cc12 [Example 189, 7-(3-(2,2-difluoroethyl)-5-(piperidin-4-yl)-1H-indol-2-yl)imidazo[1,2-a]pyridine]	100 to 1000 nM	< 100 nM	< 100 nM
CCc1c(-c2ccnc3[nH]ncc23)[nH]c2ccc(C3CCN(Cc4cnc(N)s4)CC3)cc12 [Example 931, 5-((4-(3-ethyl-2-(1H-pyrazolo[3,4-b]pyridin-4-yl)-1H-indol-5-yl)piperidin-1-yl)methyl)thiazol-2-amine]	> 50000 nM	> 50000 nM	> 50000 nM
Cc1cc(-c2[nH]c3ccc(C4CCN(CC(N)=O)CC4)cc3c2C(C)C)cc2cccnc12 [Example 436, 2-(4-(3-isopropyl-2-(8-methylquinolin-6-yl)-1H-indol-5-yl)piperidin-1-yl)acetamide]	< 100 nM	1000 to 50000 nM	< 100 nM

Now from value to compound:

IC50 (human TLR8)	IC50 (human TLR9)	IC50 (human TLR7)	SMILES
< 100 nM	1000 to 50000 nM	< 100 nM	CNC(=O)CN1CCC(c2ccc3[nH]c(-c4cc(C)n5ncnc5c4)c(C(C)C)c3c2)CC1 [Example 325, 2-(4-(3-isopropyl-2-(5-methyl-[1,2,4]triazolo [1,5-a]pyridin-7-yl)-1H-indol-5-yl)piperidin-1-yl)-N-methylacetamide]
< 100 nM	1000 to 50000 nM	100 to 1000 nM	CC(C)c1c(-c2ccnc3[nH]ncc23)[nH]c2ccc(C3CCN(Cc4cnc5ccccc5c4)CC3)cc12 [Example 895, 3-((4-(3-isopropyl-2-(1H-pyrazolo[3,4-b]pyridin-4-yl)-1H-indol-5-yl)piperidin-1-yl)methyl)quinoline]
< 100 nM	1000 to 50000 nM	100 to 1000 nM	CCc1c(-c2cnc3[nH]ncc3c2)[nH]c2ccc(C3CCNCC3)cc12 [Example 53, 5-(3-ethyl-5-(piperidin-4-yl)-1H-indol-2-yl)-1H-pyrazolo[3,4-b]pyridine]
< 100 nM	1000 to 50000 nM	< 100 nM	CC(C)c1c(-c2cn(C)c3ncccc23)[nH]c2ccc(C3CCN(C4COC4)CC3)cc12 [Example 733, 3-(3-isopropyl-5-(1-(oxetan-3-yl)piperidin-4-yl)-1H-indol-2-yl)-1-methyl-1H-pyrrolo[2,3-b]pyridine]
< 100 nM	1000 to 50000 nM	< 100 nM	COc1cc(-c2[nH]c3ccc(C4CCN(Cc5cnn[nH]5)CC4)cc3c2C(C)C)nn2ncnc12 [Example 860, 6-(5-(1-((1H-1,2,3-triazol-5-yl)methyl)piperidin-4-yl)-3-isopropyl-1H-indol-2-yl)-8-methoxy-[1,2,4]triazolo[1,5-b]pyridazine]
< 100 nM	100 to 1000 nM	< 100 nM	Cc1c(-c2ccnc3[nH]nc(C)c23)[nH]c2ccc(C3CCNCC3)cc12 [Example 218, 3-methyl-4-(3-methyl-5-(piperidin-4-yl)-1H-indol-2-yl)-1H-pyrazolo[3,4-b]pyridine]
< 100 nM	1000 to 50000 nM	< 100 nM	CNC(=O)CN1CCC(c2ccc3[nH]c(-c4nn5ncnc5c(C)c4C)c(C(C)C)c3c2)CC1 [Example 279, 2-(4-(2-(7,8-dimethyl-[1,2,4]triazolo[1,5-b]pyridazin-6-yl)-3-isopropyl-1H-indol-5-yl)piperidin-1-yl)-N-methylacetamide]
< 100 nM	1000 to 50000 nM	< 100 nM	CCc1c(-c2ccnc3[nH]ncc23)[nH]c2ccc(C3CCN(C(=O)CNC)CC3)cc12 [Example 462, 1-(4-(3-ethyl-2-(1H-pyrazolo [3,4-b]pyridin-4-yl)-1H-indol-5-yl)piperidin-1-yl)-2-(methylamino)ethan-1-one]
